Results reported in PMC6151435, “Bioactivity In Vitro of Quercetin Glycoside Obtained in Beauveria bassiana Culture and Its Interaction with Liposome Membranes” (Molecules : A Journal of Synthetic Chemistry and Natural …, 2017).
≈ marks a conversion by molar mass, not a printed value.

Tests used:
COX-1 = target: T1, COX-1 (Ovis aries, UniProt P05979); assay: Inhibition of cyclooxygenase 1 (spectrophotometric, TMPD); type: biochemical, sheep; conditions: Tris-HCl pH 8.0, room temperature
T1 construct: purchased Sigma-Aldrich
T1 sequence (P05979 25-600): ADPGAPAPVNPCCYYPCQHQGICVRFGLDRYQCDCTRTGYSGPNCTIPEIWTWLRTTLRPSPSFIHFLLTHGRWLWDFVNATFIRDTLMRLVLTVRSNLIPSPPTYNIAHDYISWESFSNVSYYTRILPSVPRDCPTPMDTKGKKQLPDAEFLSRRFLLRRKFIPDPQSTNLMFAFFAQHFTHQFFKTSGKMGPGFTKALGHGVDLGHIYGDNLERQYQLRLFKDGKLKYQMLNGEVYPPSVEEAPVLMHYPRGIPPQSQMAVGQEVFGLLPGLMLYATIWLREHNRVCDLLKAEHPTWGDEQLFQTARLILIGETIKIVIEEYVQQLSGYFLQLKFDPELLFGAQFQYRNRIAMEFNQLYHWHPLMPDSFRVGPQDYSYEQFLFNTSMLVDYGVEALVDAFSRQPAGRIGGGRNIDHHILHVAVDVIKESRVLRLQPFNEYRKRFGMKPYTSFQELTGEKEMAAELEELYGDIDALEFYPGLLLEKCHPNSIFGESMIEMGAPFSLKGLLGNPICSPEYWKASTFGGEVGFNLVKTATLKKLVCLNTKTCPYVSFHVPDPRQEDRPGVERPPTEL
Excerpt: The probes 1,6-diphenyl-1,3,5-hexatriene (DPH), 3-[p-(6-phenyl)-1,3,5-hexatrienyl]propionic acid (DPH-PA), Merocyanine 540 (MC540), and N,N,N-trimethyl-4-(6-phenyl-1,3,5-hexatrien-1-yl)phenylammonium p-toluenesulfonate (TMA-DPH) were purchased from Molecular Probes (Eugene, OR, USA). Tris (hydroxymethyl) aminomethane (Tris:HCl) were obtained from “Chempur” (Piekary Śląskie, Poland). Quercetin (Q) was purchased from Sigma-Aldrich. Yellow powder, ^1H-NMR (DMSO-d6) δH: 6.19 (1H, d, J = 2.1 Hz, H-6), 6.41 (1H, d, J = 2.1 Hz, H-8), 6.89 (1H, d, J = 8.5 Hz, H-5′), 7.54 (1H, dd, J = 8.5, 2.2 Hz, H-6′), 7.68 (1H, d, J = 2.2 Hz, H-2′). ^13C-NMR (DMSO-d6) δC: 93.2 (C-8), 98.0 (C-6), 102.9 (C-10), 114.9 (C-2′), 115.4 (C-5′), 119.8 (C-6′), 121.8 (C-1′), 135.6 (C-3), 144.9 (C-3′), 146.6 (C-2), 147.5 (C-4′), 156.0 (C-9), 160.6 (C-5), 163.7 (C-7), 175.7 (C=O).
This experiment, established on the basis of a modified method given in the work by Jang and Pezzuto [68], was conducted by a spectrophotometric measurement of inhibition of the cyclooxygenases’ activity COX-1 and COX-2. […] The concentrations of studied compounds fluctuated in the range 20–100 µM for Q 7-MeGlu and 5–50 µM for Q. Absorbance of the sample was followed for 3 min by measuring it at 1 min intervals, using a spectrophotometer at a wavelength of 611 nm (Cary 100 Bio, Varian) in relation to a reference sample. […]

[1] = Solubility in water (literature values); type: physicochemical; conditions: from cited values
[2] = ref [12]; cited from earlier work

SMILES | IC50 (COX-1) [µM] | solubility, fold lower than rutin [1] | solubility in water [2] [µg/mL]
O=c1c(O)c(-c2ccc(O)c(O)c2)oc2cc(O)cc(O)c12 [Quercetin, 3,3′,4′,5,7-pentahydroxyflavone] | 15.7 ± 1.73 | more than 240 fold | 0.512 (≈ 1.69 µM)
CO[C@H]1[C@H](O)[C@@H](O)[C@H](Oc2cc(O)c3c(=O)c(O)c(-c4ccc(O)c(O)c4)oc3c2)O[C@@H]1CO [Q 7-MeGlu, quercetin 7-O-β-D-(4″-O-methyl)glucopyranoside] | 45.1 ± 2.51 | – | –
